US9422557B2, “Methods and compositions for weed control” (Monsanto Technology LLC, priority 2011, dated 2016)

Columns and labels:
[1] = system: Glyphosate-sensitive Palmer amaranth (A. palmeri R-22) plants; test: Follow-up test of individual ACCase oligonucleotides with herbicide 24 hours later; growth effects; assay type: in vivo, Amaranthus palmeri; details: 4 nmol oligonucleotide per plant, four plants; herbicide applied 24 hours after the oligonucleotide treatment
Experimental: (§1) Glyphosate-sensitive Palmer amaranth (A. palmeri R-22) plants where grown in the greenhouse (30/20 C day/night T; 14 hour photoperiod) in 4 inch square pots containing Sun Gro® Redi-Earth and 3.5 kg/cubic meter Osmocote® 14-14-14 fertilizer. Palmer amaranth plants at 5 to 10 cm in height were treated with a pool of eight 8 short (21-22mer) single-strand antisense oligo DNA polynucleotides (ssDNA) targeting ACCase shown in Table 2 at 16 nmol, formulated in 10 millimolar sodium phosphate buffer (pH 6.8) containing 2% ammonium sulfate and 0.5% Silwet L-77. Plants were treated manually by pipetting 10 μL of polynucleotide solution on four fully expanded mature leaves, for a total of 40 microliters of solution per plant. Twenty-four and forty-eight hours later, the plants were treated with clethodim (SelectMax®, 0.97 lb ai per gallon; ACCase inhibitor) at 272 g ai/ha, crop oil concentrate (COC) at 1% was added to the herbicide treatments. Four replications of each treatment were conducted. Plant height was determined just before ssDNA treatment and at intervals upto twelve days after herbicide treatments to determine effect of the oligonucleotide and herbicide treatments.
An additional test was conducted to determine which of the ACCase oligonucleotides was responsible for the result. […]

[2] = system: Glyphosate-sensitive Palmer amaranth (A. palmeri R-22) plants; test: Topical treatment of Palmer amaranth with pooled ssDNA ACCase oligonucleotides followed by clethodim; plant height; assay type: in vivo, Amaranthus palmeri; details: clethodim (SelectMax) 272 g ai/ha with 1% COC; ssDNA pool at 16 nmol applied 24 and 48 hours before herbicide where used; height followed up to twelve days after herbicide; four replications; FIG. 1
Experimental: as §1

| Molecule | reduction of plant growth relative to untreated plants (average) [1] | reduction in plant height relative to the untreated control [2] |
| --- | --- | --- |
| oligo6: single-strand antisense DNA oligo targeting ACCase, GCACCACGAGGATCACAAGAA (DNA, backbone and methylation of C not given here; listed as Amaranthus palmeri) | 40% |  |
| CCSC(C)CC1CC(=O)C(C(CC)=NOC/C=C/Cl)=C(O)C1 (centres unmarked) [clethodim, 2-[1-[[[(2E)-3-chloro-2-propen-1-yl]oxy]imino]propyl]-5-[2-(ethylthio)propyl]-3-hydroxy-2-cyclohexen-1-one] |  | 0% |
